These results are taken from patent publication US20250250230A1, “HETEROCYCLIC COMPOUND” (TAKEDA PHARMACEUTICAL COMPANY LIMITED, priority 2022, published 2025).

The assay has as its target T1, human orexin type 2 receptor (Homo sapiens, UniProt O43614).
T1 construct: expressed in transfected cells
T1 sequence (O43614 1-444): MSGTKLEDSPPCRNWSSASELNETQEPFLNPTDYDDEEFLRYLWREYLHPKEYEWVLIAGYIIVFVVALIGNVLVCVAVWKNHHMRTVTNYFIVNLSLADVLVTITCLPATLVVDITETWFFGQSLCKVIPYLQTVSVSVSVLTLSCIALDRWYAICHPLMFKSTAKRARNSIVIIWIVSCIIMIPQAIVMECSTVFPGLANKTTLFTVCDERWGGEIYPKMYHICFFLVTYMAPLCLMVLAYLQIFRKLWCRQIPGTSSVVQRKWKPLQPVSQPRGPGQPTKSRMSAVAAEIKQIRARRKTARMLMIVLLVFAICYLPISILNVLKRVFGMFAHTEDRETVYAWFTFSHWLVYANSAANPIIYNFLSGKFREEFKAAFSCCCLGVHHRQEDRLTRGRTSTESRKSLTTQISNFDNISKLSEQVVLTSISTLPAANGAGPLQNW
Kind of assay: Measurement of orexin type 2 receptor agonist activity (calcium fluorescence, Fluo-4 AM, FDSS). The assay is classed as cell-based. As to conditions: test compound 3 μM; CHO cells expressing human OX2 receptor; DMSO = 0%, orexin A (human) = 100%. Summed up:
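Agonist response scaled between vehicle (0%) and human orexin A at 10 nM final (100%), from 2-min kinetic Fluo-4 fluorescence reads. Stable hOX2R CHO-K1 clone, dye-loaded in HBSS/20 mM HEPES/0.1% BSA with 1.25 mM probenecid before compound addition.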

Regarding `CS(=O)(=O)NC1CN(C(=O)C2CC2c2ccc(F)cc2-c2c(F)cccc2F)CC1(F)F` (stereo not drawn) [Example 245, N-{4,4-difluoro-1-[2-(2′,5,6′-trifluoro[1,1′-biphenyl]-2-yl)cyclopropane-1-carbonyl]pyrrolidin-3-yl}methanesulfonamide optical isomer], the “OX2R agonist activity (3 μM, %)” value is 103%.
Next, `CC1(C(=O)N2CCC[C@H](NS(C)(=O)=O)CC2)CC1c1ccccc1-c1c(F)cccc1F` (stereo partly drawn) [Example 246, N-{(4S)-1-[(1R,2S)-2-(2′,6′-difluoro[1,1′-biphenyl]-2-yl)-1-methylcyclopropane-1-carbonyl]azepan-4-yl}methanesulfonamide, or N-{(4S)-1-[(1S,2R)-2-(2′,6′-difluoro[1,1′-biphenyl]-2-yl)-1-methylcyclopropane-1-carbonyl]azepan-4-yl}methanesulfonamide]: 78%.
As for `CC1(C(=O)N2CC[C@H](NS(C)(=O)=O)C2)CC1c1ccccc1-c1c(F)cccc1F` (stereo partly drawn) [Example 247, N-{(3S)-1-[(1R,2S)-2-(2′,6′-difluoro[1,1′-biphenyl]-2-yl)-1-methylcyclopropane-1-carbonyl]pyrrolidin-3-yl}methanesulfonamide, or N-{(3S)-1-[(1S,2R)-2-(2′,6′-difluoro[1,1′-biphenyl]-2-yl)-1-methylcyclopropane-1-carbonyl]pyrrolidin-3-yl}methanesulfonamide], the figure is 100%; as for `CC1(C(=O)N2CC(NS(C)(=O)=O)C(F)(F)C2)CC1c1ccccc1-c1c(F)cccc1F` (stereo not drawn) [Example 248, N-{1-[2-(2′,6′-difluoro[1,1′-biphenyl]-2-yl)-1-methylcyclopropane-1-carbonyl]-4,4-difluoropyrrolidin-3-yl}methanesulfonamide optical isomer], 98%; as for `CS(=O)(=O)NC1COCCN(C(=O)[C@@H]2C[C@H]2c2ccccc2-c2c(F)cccc2F)C1` (stereo partly drawn) [Example 249, N-{(6R)-4-[(1R,2R)-2-(2′,6′-difluoro[1,1′-biphenyl]-2-yl)cyclopropane-1-carbonyl]-1,4-oxazepan-6-yl}methanesulfonamide, or N-{(6S)-4-[(1R,2R)-2-(2′,6′-difluoro[1,1′-biphenyl]-2-yl)cyclopropane-1-carbonyl]-1,4-oxazepan-6-yl}methanesulfonamide], 105%.
Consider `CN(C)S(=O)(=O)NCC1CCN1C(=O)C1CC1c1ccccc1-c1c(F)cccc1F` (stereo not drawn) [Example 250, N′-({1-[2-(2′,6′-difluoro[1,1′-biphenyl]-2-yl)cyclopropane-1-carbonyl]azetidin-2-yl}methyl)-N,N-dimethylsulfuric diamide optical isomer], for which the “OX2R agonist activity (3 μM, %)” value turned out to be 104%.
Next, `CN(C)S(=O)(=O)NC[C@@H]1CCN1C(=O)[C@@H]1C[C@H]1c1ccccc1-c1c(F)cccc1F` [Example 259, N′-({(2S)-1-[(1R,2R)-2-(2′,6′-difluoro[1,1′-biphenyl]-2-yl)cyclopropane-1-carbonyl]azetidin-2-yl}methyl)-N,N-dimethylsulfuric Diamide]: 98%; `C[C@H]1C[C@H](NS(C)(=O)=O)CN1C(=O)[C@@H]1C[C@H]1c1ccccc1-c1c(F)cccc1F` [Example 262, N-{(3S,5S)-1-[(1R,2R)-2-(2′,6′-difluoro[1,1′-biphenyl]-2-yl)cyclopropane-1-carbonyl]-5-methylpyrrolidin-3-yl}methanesulfonamide]: 109%; `C[C@@H]1C[C@H](NS(C)(=O)=O)CN1C(=O)[C@@H]1C[C@H]1c1ccccc1-c1c(F)cccc1F` [Example 263, N-{(3S,5R)-1-[(1R,2R)-2-(2′,6′-difluoro[1,1′-biphenyl]-2-yl)cyclopropane-1-carbonyl]-5-methylpyrrolidin-3-yl}methanesulfonamide]: 98%.
For `C[C@@H]1CN(C(=O)[C@@H]2C[C@H]2c2ccccc2-c2c(F)cccc2F)C[C@H]1NS(C)(=O)=O` [Example 264, N-{(3S,4R)-1-[(1R,2R)-2-(2′,6′-difluoro[1,1′-biphenyl]-2-yl)cyclopropane-1-carbonyl]-4-methylpyrrolidin-3-yl}methanesulfonamide], the “OX2R agonist activity (3 μM, %)” value was 97%.
As for `C[C@H]1CN(C(=O)[C@@H]2C[C@H]2c2ccccc2-c2c(F)cccc2F)C[C@H]1NS(C)(=O)=O` [Example 265, N-{(3S,4S)-1-[(1R,2R)-2-(2′,6′-difluoro[1,1′-biphenyl]-2-yl)cyclopropane-1-carbonyl]-4-methylpyrrolidin-3-yl}methanesulfonamide], the figure is 86%; as for `CS(=O)(=O)N[C@@H]1CN(C(=O)[C@@H]2C[C@H]2c2ccccc2-c2c(F)cccc2F)CC[C@H]1O` [Example 269, N-{(3R,4R)-1-[(1R,2R)-2-(2′,6′-difluoro[1,1′-biphenyl]-2-yl)cyclopropane-1-carbonyl]-4-hydroxypiperidin-3-yl}methanesulfonamide], 100%; as for `CS(=O)(=O)N[C@@H]1CN(C(=O)[C@@H]2C[C@H]2c2ccccc2-c2c(F)cccc2F)CC[C@@H]1O` [Example 270, N-{(3R,4S)-1-[(1R,2R)-2-(2′,6′-difluoro[1,1′-biphenyl]-2-yl)cyclopropane-1-carbonyl]-4-hydroxypiperidin-3-yl}methanesulfonamide], 64%.
On to `CS(=O)(=O)N[C@@H]1CN(C(=O)[C@@H]2C[C@H]2c2ccccc2-c2c(F)cccc2F)CC(F)(F)C1` [Example 271, N-{(3S)-1-[(1R,2R)-2-(2′,6′-difluoro[1,1′-biphenyl]-2-yl)cyclopropane-1-carbonyl]-5,5-difluoropiperidin-3-yl}methanesulfonamide], for which the “OX2R agonist activity (3 μM, %)” value amounted to 87%.
Next, `CS(=O)(=O)NC12CC1CN(C(=O)C1CC1c1ccccc1-c1c(F)cccc1F)C2` (stereo not drawn) [Example 272, N-{3-[2-(2′,6′-difluoro[1,1′-biphenyl]-2-yl)cyclopropane-1-carbonyl]-3-azabicyclo[3.1.0]hexan-1-yl}methanesulfonamide optical isomer]: 99%.
Turning to `CS(=O)(=O)NC12CCC1CN(C(=O)C1CC1c1ccccc1-c1c(F)cccc1F)C2` (stereo not drawn) [Example 273, N-{3-[2-(2′,6′-difluoro[1,1′-biphenyl]-2-yl)cyclopropane-1-carbonyl]-3-azabicyclo[3.1.0]hexan-1-yl}methanesulfonamide optical isomer], the “OX2R agonist activity (3 μM, %)” value came to 98%.
For the molecule `CC1(C(=O)N2CCCC[C@H](NS(C)(=O)=O)C2)CC1c1ccccc1-c1c(F)cccc1F` (stereo partly drawn) [Example 274, N-{(3S)-1-[(1R,2S)-2-(2′,6′-difluoro[1,1′-biphenyl]-2-yl)-1-methylcyclopropane-1-carbonyl]azepan-3-yl}methanesulfonamide, or N-{(3S)-1-[(1S,2R)-2-(2′,6′-difluoro[1,1′-biphenyl]-2-yl)-1-methylcyclopropane-1-carbonyl]azepan-3-yl}methanesulfonamide], the “OX2R agonist activity (3 μM, %)” value is given as 86%.
For `CS(=O)(=O)NCC1CCN1C(=O)C1CC1c1ccccc1-c1c(F)cccc1F` (stereo not drawn) [Example 276, N-({1-[2-(2′,6′-difluoro[1,1′-biphenyl]-2-yl)cyclopropane-1-carbonyl]azetidin-2-yl}methyl)methylsulfonamide optical isomer], the “OX2R agonist activity (3 μM, %)” value stood at 101%.
